Results published in PMC7265341, “Quantifying CDK inhibitor selectivity in live cells” (Nature Communications, 2020).
Read-outs that look alike come from different tables or passages of the source.

How the values were obtained:
CDK1/Cyclin E1 = CDK1/Cyclin E1 (Homo sapiens, UniProt P06493); assay: NanoBRET live-cell target engagement, CDK1-NanoLuc/Cyclin E1 in HEK-293; format: binding; settings: CDK1/E1, read-out: Inhibition at 10µM (%)
CDK4/Cyclin D1 = CDK4/Cyclin D1 (Homo sapiens, UniProt P11802); assay: NanoBRET live-cell target engagement, NanoLuc-CDK4/Cyclin D1 in HEK-293; format: binding; settings: CDK4/D1, read-out: Inhibition at 10µM (%)
CDK5/CDK5R1 = CDK5/CDK5R1 (Homo sapiens, UniProt Q00535); assay: NanoBRET live-cell target engagement, CDK5-NanoLuc/CDK5R1 in HEK-293; format: binding; settings: CDK5/CDK5R1, read-out: Inhibition at 10µM (%)
CDK6/Cyclin D1 = CDK6/Cyclin D1 (Homo sapiens, UniProt Q00534); assay: NanoBRET live-cell target engagement, NanoLuc-CDK6/Cyclin D1 in HEK-293; format: binding; settings: CDK6/D1, read-out: Inhibition at 10µM (%)
CDK7 = CDK7 (Homo sapiens, UniProt P50613); assay: NanoBRET live-cell target engagement, NanoLuc-CDK7 in HEK-293; format: binding; settings: for inhibition at 10 µM: read-out: Inhibition at 10µM (%)
CDK8/Cyclin C = CDK8/Cyclin C (Homo sapiens, UniProt P49336); assay: NanoBRET live-cell target engagement, NanoLuc-CDK8/Cyclin C in HEK-293; format: binding; settings: for inhibition at 10 µM: read-out: Inhibition at 10µM (%)
CDK9/Cyclin K = CDK9/Cyclin K (Homo sapiens, UniProt P50750); assay: NanoBRET live-cell target engagement, NanoLuc-CDK9/Cyclin K in HEK-293; format: binding; settings: CDK9/K, read-out: Inhibition at 10µM (%)
CDK11A/Cyclin L2 = biological target: T1, CDK11A/Cyclin L2 (Homo sapiens, UniProt Q9UQ88); assay: NanoBRET live-cell target engagement, CDK11A-NanoLuc/Cyclin L2 in HEK-293; format: binding; settings: CDK11a/L2, read-out: Inhibition at 10µM (%)
T1 sequence (Q9UQ88 1-783): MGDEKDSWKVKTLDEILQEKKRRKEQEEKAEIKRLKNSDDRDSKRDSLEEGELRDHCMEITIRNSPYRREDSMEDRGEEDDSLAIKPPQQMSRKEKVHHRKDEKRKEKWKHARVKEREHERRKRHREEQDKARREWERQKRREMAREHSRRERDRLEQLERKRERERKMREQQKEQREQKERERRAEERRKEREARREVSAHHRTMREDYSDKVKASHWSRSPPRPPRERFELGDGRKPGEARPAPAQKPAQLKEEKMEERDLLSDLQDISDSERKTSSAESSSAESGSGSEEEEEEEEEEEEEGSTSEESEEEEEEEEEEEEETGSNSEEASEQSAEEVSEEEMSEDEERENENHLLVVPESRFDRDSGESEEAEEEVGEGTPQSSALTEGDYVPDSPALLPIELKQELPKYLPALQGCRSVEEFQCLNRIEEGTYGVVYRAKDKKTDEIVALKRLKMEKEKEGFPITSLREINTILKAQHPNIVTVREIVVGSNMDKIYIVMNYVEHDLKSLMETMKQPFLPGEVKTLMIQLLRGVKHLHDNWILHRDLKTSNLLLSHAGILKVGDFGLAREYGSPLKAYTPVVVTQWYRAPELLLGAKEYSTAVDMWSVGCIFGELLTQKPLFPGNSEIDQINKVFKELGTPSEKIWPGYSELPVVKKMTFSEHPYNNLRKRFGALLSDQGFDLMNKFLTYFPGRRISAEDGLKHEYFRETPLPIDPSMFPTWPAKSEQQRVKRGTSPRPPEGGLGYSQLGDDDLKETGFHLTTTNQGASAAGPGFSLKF

CDK11B/Cyclin L2 = CDK11B/Cyclin L2 (Homo sapiens, UniProt P21127); assay: NanoBRET live-cell target engagement, CDK11B-NanoLuc/Cyclin L2 in HEK-293; format: binding; settings: CDK11b/L2, read-out: Inhibition at 10µM (%)
CDK12/Cyclin K = CDK12/Cyclin K (Homo sapiens, UniProt Q9NYV4); assay: NanoBRET live-cell target engagement, CDK12-NanoLuc/Cyclin K in HEK-293; format: binding; settings: CDK12/K, read-out: Inhibition at 10µM (%)
CDK13/Cyclin K = CDK13/Cyclin K (Homo sapiens, UniProt Q14004); assay: NanoBRET live-cell target engagement, CDK13-NanoLuc/Cyclin K in HEK-293; format: binding; settings: CDK13/K, read-out: Inhibition at 10µM (%)
CDK14/Cyclin Y = CDK14/Cyclin Y (Homo sapiens, UniProt O94921); assay: NanoBRET live-cell target engagement, CDK14-NanoLuc/Cyclin Y in HEK-293; format: binding; settings: CDK14/Y, read-out: Inhibition at 10µM (%)
CDK15/Cyclin Y = CDK15/Cyclin Y (Homo sapiens, UniProt Q96Q40); assay: NanoBRET live-cell target engagement, NanoLuc-CDK15/Cyclin Y in HEK-293; format: binding; settings: CDK15/Y, read-out: Inhibition at 10µM (%)
CDK16/Cyclin Y = CDK16/Cyclin Y (Homo sapiens, UniProt Q00536); assay: NanoBRET live-cell target engagement, CDK16-NanoLuc/Cyclin Y in HEK-293; format: binding; settings: CDK16/Y; for IC50: read-out: IC50; for inhibition at 10 µM: read-out: Inhibition at 10µM (%)
CDK17/Cyclin Y = CDK17/Cyclin Y (Homo sapiens, UniProt Q00537); assay: NanoBRET live-cell target engagement, CDK17-NanoLuc/Cyclin Y in HEK-293; format: binding; settings: CDK17/Y; for IC50: read-out: IC50; for inhibition at 10 µM: read-out: Inhibition at 10µM (%)
CDK18/Cyclin Y = CDK18/Cyclin Y (Homo sapiens, UniProt Q07002); assay: NanoBRET live-cell target engagement, CDK18-NanoLuc/Cyclin Y in HEK-293; format: binding; settings: CDK18/Y; for IC50: read-out: IC50; for inhibition at 10 µM: read-out: Inhibition at 10µM (%)
CDK20/Cyclin H = CDK20/Cyclin H (Homo sapiens, UniProt Q8IZL9); assay: NanoBRET live-cell target engagement, NanoLuc-CDK20/Cyclin H in HEK-293; format: binding; settings: CDK20/H, read-out: Inhibition at 10µM (%)
CDK19/Cyclin C = CDK19/Cyclin C (Homo sapiens, UniProt Q9BWU1); assay: NanoBRET live-cell target engagement, NanoLuc-CDK19/Cyclin C in HEK-293; settings: for inhibition at 10 µM: read-out: Inhibition at 10µM (%), CDK19/C
CDK10/Cyclin L2 = CDK10/Cyclin L2 (Homo sapiens, UniProt Q15131); assay: NanoBRET live-cell target engagement, CDK10-NanoLuc/Cyclin L2 in HEK-293; settings: for IC50: IC50 (nM), CDK10/L2; for inhibition at 10 µM: read-out: Inhibition at 10µM (%), CDK10/L2

CDK16/Cyclin Y, sequence (Q00536 whole entry): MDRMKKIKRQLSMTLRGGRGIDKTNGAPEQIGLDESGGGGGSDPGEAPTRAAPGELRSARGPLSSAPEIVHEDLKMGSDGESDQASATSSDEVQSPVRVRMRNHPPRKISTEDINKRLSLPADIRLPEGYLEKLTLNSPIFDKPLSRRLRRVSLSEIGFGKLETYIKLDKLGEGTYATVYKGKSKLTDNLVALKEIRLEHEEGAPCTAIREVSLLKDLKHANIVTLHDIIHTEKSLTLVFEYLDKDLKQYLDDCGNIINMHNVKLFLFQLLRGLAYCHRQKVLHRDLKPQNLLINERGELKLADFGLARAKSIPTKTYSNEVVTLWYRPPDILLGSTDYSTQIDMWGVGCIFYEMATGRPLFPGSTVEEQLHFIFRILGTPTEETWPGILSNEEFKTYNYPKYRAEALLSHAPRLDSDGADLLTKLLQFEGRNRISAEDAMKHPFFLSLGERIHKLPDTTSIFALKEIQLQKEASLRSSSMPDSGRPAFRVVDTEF
CDK16/Cyclin Y, sequence (Q8ND76 whole entry partner): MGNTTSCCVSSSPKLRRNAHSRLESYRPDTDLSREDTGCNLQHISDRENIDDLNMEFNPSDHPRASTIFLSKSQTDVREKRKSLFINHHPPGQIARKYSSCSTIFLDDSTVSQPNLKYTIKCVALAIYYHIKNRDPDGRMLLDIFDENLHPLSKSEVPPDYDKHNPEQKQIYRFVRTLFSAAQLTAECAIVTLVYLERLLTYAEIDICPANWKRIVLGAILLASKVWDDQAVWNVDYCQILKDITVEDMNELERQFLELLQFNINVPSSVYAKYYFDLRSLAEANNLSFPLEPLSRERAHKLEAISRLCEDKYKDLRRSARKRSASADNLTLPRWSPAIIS
CDK18/Cyclin Y, sequence (Q07002 whole entry): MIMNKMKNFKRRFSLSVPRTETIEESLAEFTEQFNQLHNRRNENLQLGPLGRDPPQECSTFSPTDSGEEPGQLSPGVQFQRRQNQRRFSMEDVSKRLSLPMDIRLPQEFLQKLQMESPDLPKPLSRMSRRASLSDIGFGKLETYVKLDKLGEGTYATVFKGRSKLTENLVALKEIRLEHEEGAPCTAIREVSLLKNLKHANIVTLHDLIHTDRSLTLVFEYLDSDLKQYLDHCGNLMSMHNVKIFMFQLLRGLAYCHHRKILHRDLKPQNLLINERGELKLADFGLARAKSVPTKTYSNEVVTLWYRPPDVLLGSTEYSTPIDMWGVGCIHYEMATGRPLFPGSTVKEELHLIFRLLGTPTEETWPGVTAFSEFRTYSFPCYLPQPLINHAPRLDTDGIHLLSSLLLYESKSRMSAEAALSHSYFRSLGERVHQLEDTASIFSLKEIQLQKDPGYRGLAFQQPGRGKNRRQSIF
CDK18/Cyclin Y, sequence (Q8ND76 whole entry partner): as the sequence (Q8ND76 whole entry partner) above
CDK19/Cyclin C, sequence (Q9BWU1 whole entry): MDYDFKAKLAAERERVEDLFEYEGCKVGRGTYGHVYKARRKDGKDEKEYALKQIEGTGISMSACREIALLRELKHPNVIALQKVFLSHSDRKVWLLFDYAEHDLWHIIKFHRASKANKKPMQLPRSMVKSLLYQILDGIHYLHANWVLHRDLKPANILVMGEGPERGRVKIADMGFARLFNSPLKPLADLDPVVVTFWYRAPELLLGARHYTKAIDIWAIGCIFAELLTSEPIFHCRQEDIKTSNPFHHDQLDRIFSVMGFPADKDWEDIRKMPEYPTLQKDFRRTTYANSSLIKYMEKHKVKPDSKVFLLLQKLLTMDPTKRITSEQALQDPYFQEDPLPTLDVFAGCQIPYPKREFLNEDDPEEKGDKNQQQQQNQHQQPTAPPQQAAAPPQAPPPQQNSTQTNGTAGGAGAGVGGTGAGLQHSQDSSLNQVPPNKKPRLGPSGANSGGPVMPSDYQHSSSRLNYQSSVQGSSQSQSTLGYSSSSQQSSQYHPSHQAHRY
CDK19/Cyclin C, sequence (P24863 whole entry partner): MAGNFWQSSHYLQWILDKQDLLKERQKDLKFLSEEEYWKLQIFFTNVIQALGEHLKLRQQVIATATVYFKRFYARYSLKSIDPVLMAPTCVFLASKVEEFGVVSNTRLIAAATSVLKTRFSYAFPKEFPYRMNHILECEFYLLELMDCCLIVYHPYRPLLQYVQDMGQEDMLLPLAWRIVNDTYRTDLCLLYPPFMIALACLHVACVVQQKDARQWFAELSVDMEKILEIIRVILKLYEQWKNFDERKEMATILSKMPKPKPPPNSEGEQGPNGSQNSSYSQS
CDK13/Cyclin K, sequence (O75909 whole entry): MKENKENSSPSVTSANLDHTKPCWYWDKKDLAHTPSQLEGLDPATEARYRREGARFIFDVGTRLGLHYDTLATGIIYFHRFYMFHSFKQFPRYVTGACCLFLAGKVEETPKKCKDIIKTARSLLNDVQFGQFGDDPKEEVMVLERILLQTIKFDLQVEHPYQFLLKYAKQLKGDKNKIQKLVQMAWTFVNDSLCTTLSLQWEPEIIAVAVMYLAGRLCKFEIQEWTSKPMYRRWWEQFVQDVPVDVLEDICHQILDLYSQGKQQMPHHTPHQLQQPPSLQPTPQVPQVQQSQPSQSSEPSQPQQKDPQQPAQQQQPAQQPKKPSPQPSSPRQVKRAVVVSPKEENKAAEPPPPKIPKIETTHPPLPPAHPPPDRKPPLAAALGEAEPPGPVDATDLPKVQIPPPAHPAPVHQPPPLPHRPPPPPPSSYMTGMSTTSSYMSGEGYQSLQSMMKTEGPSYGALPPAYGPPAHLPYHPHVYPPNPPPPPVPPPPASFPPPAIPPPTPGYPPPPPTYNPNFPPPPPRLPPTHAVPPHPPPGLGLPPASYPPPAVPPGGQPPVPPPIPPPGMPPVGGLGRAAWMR
CDK13/Cyclin K, sequence (Q14004 other isoform, or with tags, fused parts or gaps): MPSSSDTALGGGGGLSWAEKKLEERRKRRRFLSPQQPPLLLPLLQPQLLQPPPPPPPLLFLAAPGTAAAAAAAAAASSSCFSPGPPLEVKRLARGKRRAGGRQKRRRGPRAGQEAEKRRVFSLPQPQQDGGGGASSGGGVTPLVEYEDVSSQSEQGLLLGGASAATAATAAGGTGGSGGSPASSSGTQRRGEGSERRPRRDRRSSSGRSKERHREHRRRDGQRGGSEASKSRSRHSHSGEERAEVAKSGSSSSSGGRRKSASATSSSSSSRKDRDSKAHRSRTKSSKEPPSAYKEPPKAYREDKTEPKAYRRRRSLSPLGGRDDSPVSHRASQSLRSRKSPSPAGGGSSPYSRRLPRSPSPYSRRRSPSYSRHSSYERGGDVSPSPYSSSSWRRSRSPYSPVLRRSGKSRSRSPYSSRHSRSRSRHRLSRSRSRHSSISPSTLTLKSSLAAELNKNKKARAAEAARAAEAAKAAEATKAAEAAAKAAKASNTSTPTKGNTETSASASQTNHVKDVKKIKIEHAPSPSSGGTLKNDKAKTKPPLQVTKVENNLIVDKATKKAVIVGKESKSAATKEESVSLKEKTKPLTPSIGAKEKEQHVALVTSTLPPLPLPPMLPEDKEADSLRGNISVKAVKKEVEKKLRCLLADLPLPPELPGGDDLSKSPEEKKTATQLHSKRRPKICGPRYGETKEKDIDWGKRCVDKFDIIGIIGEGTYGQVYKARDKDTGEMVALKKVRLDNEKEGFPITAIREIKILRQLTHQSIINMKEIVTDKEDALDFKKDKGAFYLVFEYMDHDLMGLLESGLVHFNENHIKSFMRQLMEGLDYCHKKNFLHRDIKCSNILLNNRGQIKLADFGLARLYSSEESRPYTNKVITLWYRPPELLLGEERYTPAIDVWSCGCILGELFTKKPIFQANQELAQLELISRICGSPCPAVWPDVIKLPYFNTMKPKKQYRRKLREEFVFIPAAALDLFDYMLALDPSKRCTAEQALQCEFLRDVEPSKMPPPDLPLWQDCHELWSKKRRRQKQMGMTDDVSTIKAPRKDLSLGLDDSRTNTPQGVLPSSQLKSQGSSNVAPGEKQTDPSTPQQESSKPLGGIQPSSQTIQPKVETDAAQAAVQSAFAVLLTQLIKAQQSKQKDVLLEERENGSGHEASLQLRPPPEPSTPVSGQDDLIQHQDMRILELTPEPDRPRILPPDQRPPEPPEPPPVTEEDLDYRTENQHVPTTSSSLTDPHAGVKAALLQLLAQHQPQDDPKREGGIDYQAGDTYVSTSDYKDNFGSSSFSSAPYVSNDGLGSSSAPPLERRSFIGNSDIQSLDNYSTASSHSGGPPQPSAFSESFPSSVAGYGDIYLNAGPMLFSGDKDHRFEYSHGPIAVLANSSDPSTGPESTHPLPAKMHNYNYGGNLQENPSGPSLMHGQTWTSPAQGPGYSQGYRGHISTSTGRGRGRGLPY
CDK17/Cyclin Y, sequence (Q00537 whole entry): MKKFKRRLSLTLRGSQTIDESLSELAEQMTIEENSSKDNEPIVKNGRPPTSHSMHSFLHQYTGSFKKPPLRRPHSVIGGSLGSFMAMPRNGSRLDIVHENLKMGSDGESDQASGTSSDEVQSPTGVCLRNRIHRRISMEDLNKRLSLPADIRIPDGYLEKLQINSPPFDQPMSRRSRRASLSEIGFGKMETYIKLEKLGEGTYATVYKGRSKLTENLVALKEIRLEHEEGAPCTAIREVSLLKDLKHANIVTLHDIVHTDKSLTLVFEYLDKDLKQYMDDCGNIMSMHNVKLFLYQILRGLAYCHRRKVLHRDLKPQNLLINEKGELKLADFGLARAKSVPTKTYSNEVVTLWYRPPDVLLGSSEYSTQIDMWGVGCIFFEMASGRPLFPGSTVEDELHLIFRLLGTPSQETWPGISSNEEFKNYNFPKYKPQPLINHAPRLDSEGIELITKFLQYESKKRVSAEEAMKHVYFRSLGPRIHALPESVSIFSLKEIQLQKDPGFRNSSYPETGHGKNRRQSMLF
CDK17/Cyclin Y, sequence (Q8ND76 whole entry partner): as the sequence (Q8ND76 whole entry partner) above

CN1CCN(Cc2ccc(NC(=O)Nc3ccc(Oc4ccnc(N)n4)cc3)cc2C(F)(F)F)CC1 [K03861] gave an inhibition at 10 µM (CDK1/Cyclin E1; average) of 70.4%, an inhibition at 10 µM (CDK1/Cyclin E1; experiment 1) of 66.2% and an inhibition at 10 µM (CDK1/Cyclin E1; experiment 2) of 74.6%. It also gave an inhibition at 10 µM (CDK4/Cyclin D1; average) of 78.8%, an inhibition at 10 µM (CDK4/Cyclin D1; experiment 1) of 79.9% and an inhibition at 10 µM (CDK4/Cyclin D1; experiment 2) of 77.6%. It also gave an inhibition at 10 µM (CDK5/CDK5R1; average) of 23.7%, an inhibition at 10 µM (CDK5/CDK5R1; experiment 1) of 27.8% and an inhibition at 10 µM (CDK5/CDK5R1; experiment 2) of 19.6%. It also gave an inhibition at 10 µM (CDK6/Cyclin D1; average) of 35.2%, an inhibition at 10 µM (CDK6/Cyclin D1; experiment 1) of 23.8% and an inhibition at 10 µM (CDK6/Cyclin D1; experiment 2) of 46.5%. For the same compound, the inhibition at 10 µM (CDK7; CDK7, average) was 81.8%, the IC50 (CDK7; CDK7, experiment 1, read-out: IC50) was 76 nM and the inhibition at 10 µM (CDK7; CDK7, experiment 1) was 83.6%. For the same compound, the IC50 (CDK7; CDK7, experiment 2, read-out: IC50) was 59 nM, the inhibition at 10 µM (CDK7; CDK7, experiment 2) was 79.9% and the IC50 (CDK7; CDK7, experiment 3, read-out: IC50) was 55 nM. It also gave an IC50 (CDK7; live HEK-293, 2 h, mean ± S.E.M. (n=3) or mean (n=2), read-out: IC50 for CDK/cyclin complexes, CDK7) of 63 nM, an inhibition at 10 µM (CDK8/Cyclin C; CDK8/C, average) of 95.6% and an IC50 (CDK8/Cyclin C; CDK8/C, experiment 1, read-out: IC50) of 2.1 nM. For the same compound, the inhibition at 10 µM (CDK8/Cyclin C; CDK8/C, experiment 1) was 96.7%, the IC50 (CDK8/Cyclin C; CDK8/C, experiment 2, read-out: IC50) was 5 nM and the inhibition at 10 µM (CDK8/Cyclin C; CDK8/C, experiment 2) was 94.5%. The IC50 (CDK8/Cyclin C; CDK8/C, experiment 3, read-out: IC50) was 2.2 nM, the IC50 (CDK8/Cyclin C; live HEK-293, 2 h, mean ± S.E.M. (n=3) or mean (n=2), read-out: IC50 for CDK/cyclin complexes, CDK8/C) was 3 nM and the inhibition at 10 µM (CDK9/Cyclin K; average) was 85.1%. It also gave an inhibition at 10 µM (CDK9/Cyclin K; experiment 1) of 84.3%, an inhibition at 10 µM (CDK9/Cyclin K; experiment 2) of 85.8% and an inhibition at 10 µM (CDK11A/Cyclin L2; average) of 14.5%. It also gave an inhibition at 10 µM (CDK11A/Cyclin L2; experiment 1) of 19.2%, an inhibition at 10 µM (CDK11A/Cyclin L2; experiment 2) of 9.8% and an inhibition at 10 µM (CDK11B/Cyclin L2; average) of 9.9%. For the same compound, the inhibition at 10 µM (CDK11B/Cyclin L2; experiment 1) was 15.5%, the inhibition at 10 µM (CDK11B/Cyclin L2; experiment 2) was 4.3% and the inhibition at 10 µM (CDK12/Cyclin K; average) was 43.7%. The inhibition at 10 µM (CDK12/Cyclin K; experiment 1) was 39%, the inhibition at 10 µM (CDK12/Cyclin K; experiment 2) was 48.3% and the inhibition at 10 µM (CDK13/Cyclin K; average) was 36.6%. The inhibition at 10 µM (CDK13/Cyclin K; experiment 1) was 32.4%, the inhibition at 10 µM (CDK13/Cyclin K; experiment 2) was 40.8% and the inhibition at 10 µM (CDK14/Cyclin Y; average) was 84.9%. It also gave an inhibition at 10 µM (CDK14/Cyclin Y; experiment 1) of 87.3%, an inhibition at 10 µM (CDK14/Cyclin Y; experiment 2) of 82.6% and an inhibition at 10 µM (CDK15/Cyclin Y; average) of 80.7%. For the same compound, the inhibition at 10 µM (CDK15/Cyclin Y; experiment 1) was 82.9%, the inhibition at 10 µM (CDK15/Cyclin Y; experiment 2) was 78.6% and the IC50 (CDK16/Cyclin Y; average (± SEM where n=3)) was 260 ± 70 nM. The IC50 (CDK16/Cyclin Y; experiment 1) was 140 nM, the inhibition at 10 µM (CDK16/Cyclin Y; experiment 1) was 74.3% and the IC50 (CDK16/Cyclin Y; experiment 2) was 365 nM. The inhibition at 10 µM (CDK16/Cyclin Y; experiment 2) was 80.7%, the IC50 (CDK16/Cyclin Y; experiment 3) was 270 nM and the IC50 (CDK17/Cyclin Y; average (± SEM where n=3)) was 190 ± 60 nM. The inhibition at 10 µM (CDK17/Cyclin Y; average) was 89.9%, the IC50 (CDK17/Cyclin Y; experiment 1) was 80 nM and the inhibition at 10 µM (CDK17/Cyclin Y; experiment 1) was 89.1%. For the same compound, the IC50 (CDK17/Cyclin Y; experiment 2) was 281 nM, the inhibition at 10 µM (CDK17/Cyclin Y; experiment 2) was 90.7% and the IC50 (CDK17/Cyclin Y; experiment 3) was 200 nM. For the same compound, the IC50 (CDK18/Cyclin Y; average (± SEM where n=3)) was 400 ± 100 nM, the inhibition at 10 µM (CDK18/Cyclin Y; average) was 93.7% and the IC50 (CDK18/Cyclin Y; experiment 1) was 144 nM. For the same compound, the inhibition at 10 µM (CDK18/Cyclin Y; experiment 1) was 88.2%, the IC50 (CDK18/Cyclin Y; experiment 2) was 408 nM and the inhibition at 10 µM (CDK18/Cyclin Y; experiment 2) was 99.2%. It also gave an IC50 (CDK18/Cyclin Y; experiment 3) of 610 nM, an inhibition at 10 µM (CDK20/Cyclin H; experiment 1) of 40% and an inhibition at 10 µM (CDK20/Cyclin H; experiment 2) of 64.4%. It also gave an IC50 (CDK19/Cyclin C; IC50 (nM), CDK19/C, experiment 1) of 1.4 nM, an IC50 (CDK19/Cyclin C; IC50 (nM), CDK19/C, experiment 2) of 2.3 nM and an IC50 (CDK19/Cyclin C; IC50 (nM), CDK19/C, experiment 3) of 0.5 nM. It also gave an IC50 (CDK19/Cyclin C; IC50 (nM), CDK19/Y (so in the source), average (± SEM where n=3)) of 1.4 ± 0.5 nM, an IC50 (CDK19/Cyclin C; IC50 for CDK/cyclin complexes, CDK19/C, live HEK-293, 2 h, mean ± S.E.M. (n=3) or mean (n=2)) of 1.4 ± 0.5 nM and an inhibition at 10 µM (CDK19/Cyclin C; average) of 96.4%. For the same compound, the inhibition at 10 µM (CDK19/Cyclin C; experiment 1) was 95.5%, the inhibition at 10 µM (CDK19/Cyclin C; experiment 2) was 97.3% and the IC50 (CDK10/Cyclin L2; average (± SEM where n=3)) was 500 ± 100 nM. For the same compound, the IC50 (CDK10/Cyclin L2; experiment 1) was 310 nM, the IC50 (CDK10/Cyclin L2; experiment 2) was 530 nM and the IC50 (CDK10/Cyclin L2; experiment 3) was 670 nM. For the same compound, the inhibition at 10 µM (CDK10/Cyclin L2; average) was 79.8%, the inhibition at 10 µM (CDK10/Cyclin L2; experiment 1) was 79.7% and the inhibition at 10 µM (CDK10/Cyclin L2; experiment 2) was 79.9%.
